Results taken from PubChem BioAssay AID256 (DTP/NCI, 2004).
Several values for one entry are separate records, joined by “and”; a condition that tells them apart may be missing. Equal entries are not always repeated. Inconclusive results and toxic doses are left out. Rule for the calls: active = survival T/C of 150% or more; inactive = T/C below 125% in these data.

Test system: CD2F1 mice, L1210 leukemia ip, survival T/C
Assay: NCI In Vivo Anticancer Drug Screen. Data for tumor model L1210 Leukemia (intraperitoneal) in CD2F1 (CDF1) mice
Settings: higher = longer survival
Outline: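 Activity against a transplanted murine tumor was judged by comparing the compound group with a vehicle group. The outcome in the treated animals was divided by that in the controls.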

[1] = endpoint: mean survival time, dose: 100.0 mg/kg/injection, schedule: Q01DX009 (ip), vehicle: saline with Tween-80
[2] = endpoint: mean survival time, dose: 100.0 mg/kg/injection, schedule: Q04DX003 (ip), vehicle: saline with Tween-80
[3] = endpoint: mean survival time, dose: 200.0 mg/kg/injection, schedule: Q01DX009 (ip), vehicle: saline with Tween-80
[4] = endpoint: mean survival time, dose: 200.0 mg/kg/injection, schedule: Q04DX003 (ip), vehicle: saline with Tween-80
[5] = endpoint: mean survival time, dose: 400.0 mg/kg/injection, schedule: Q01DX009 (ip), vehicle: saline with Tween-80
[6] = endpoint: mean survival time, dose: 400.0 mg/kg/injection, schedule: Q04DX003 (ip), vehicle: saline with Tween-80
[7] = endpoint: mean survival time, dose: 6.25 mg/kg/injection, schedule: Q01DX009 (ip), vehicle: saline with Tween-80
[8] = endpoint: mean survival time, dose: 25.0 mg/kg/injection, schedule: Q01DX009 (ip), vehicle: saline with Tween-80
[9] = endpoint: mean survival time, dose: 100.0 mg/kg/injection, schedule: Q01DX001 (ip), vehicle: saline with Tween-80
[10] = endpoint: mean survival time, dose: 200.0 mg/kg/injection, schedule: Q01DX001 (ip), vehicle: saline with Tween-80
[11] = endpoint: mean survival time, dose: 400.0 mg/kg/injection, schedule: Q01DX001 (ip), vehicle: saline with Tween-80
[12] = endpoint: mean survival time, dose: 12.5 mg/kg/injection, schedule: Q01DX009 (ip), vehicle: saline with Tween-80
[13] = endpoint: mean survival time, dose: 50.0 mg/kg/injection, schedule: Q01DX009 (ip), vehicle: saline with Tween-80
[14] = endpoint: mean survival time, dose: 100.0 mg/kg/injection, schedule: Q04DX002 (ip), vehicle: saline with Tween-80
[15] = endpoint: mean survival time, dose: 200.0 mg/kg/injection, schedule: Q04DX002 (ip), vehicle: saline with Tween-80
[16] = endpoint: mean survival time, dose: 400.0 mg/kg/injection, schedule: Q04DX002 (ip), vehicle: saline with Tween-80
[17] = endpoint: mean survival time, dose: 75.0 mg/kg/injection, schedule: Q01DX001 (ip), vehicle: saline
[18] = endpoint: mean survival time, dose: 150.0 mg/kg/injection, schedule: Q01DX001 (ip), vehicle: saline

Measured: T/C

COc1cc2cc[n+]3c(C)c4ccc(OC)c(OC)c4cc3c2cc1OC (tested in a mixture with another compound)
inactive: endpoint: mean survival time, dose: 5.0 mg/kg/injection, schedule: Q01DX009 (ip), vehicle: saline 108 % of control | endpoint: mean survival time, dose: 60.0 mg/kg/injection, schedule: Q01DX009 (ip), vehicle: saline 121 % of control

O=C(CC(Cl)c1ccccc1)c1ccccc1 (stereo not given)
inactive: [1] 91 % of control | [2] 94 % of control | [3] 96 % of control | [4] 98 % of control | [5] 91 % of control | [6] 90 % of control

CC(=O)Nc1cccc(N=Cc2ccc(N(CCOS(C)(=O)=O)CCOS(C)(=O)=O)cc2C)c1
inactive: [7] 123 % of control | endpoint: mean survival time, dose: 8.0 mg/kg/injection, schedule: Q01DX009 (ip), vehicle: saline with Tween-80 118 % of control | [8] 124 % of control

COC(=O)C1C=CCC=C1OC (stereo not given)
inactive: [1] 113 % of control | [3] 104 % of control | [5] 109 % of control

CC(C)(C(=O)c1ccccc1)C(OC(=O)c1ccccc1)c1ccccc1 (stereo not given)
inactive: [9] 106 % of control | [10] 98 % of control | [11] 104 % of control

Cc1oc2c(C)c3oc(=O)cc(C)c3cc2c1CCl
inactive: [12] 101 % of control and 105 % of control | [8] 96 % of control and 105 % of control | [13] 96 % of control and 108 % of control | [1] 109 % of control | [3] 91 % of control

C[N+](C)(CC(=O)Nc1cccc(C(F)(F)F)c1)CC(=O)Nc1cccc(C(F)(F)F)c1
inactive: endpoint: mean survival time, dose: 25.0 mg/kg/injection, schedule: Q04DX003 (ip), vehicle: saline with Tween-80 100 % of control | endpoint: mean survival time, dose: 50.0 mg/kg/injection, schedule: Q04DX003 (ip), vehicle: saline with Tween-80 88 % of control

O=C(/C=C(/c1ccccc1)P(=O)(c1ccccc1)c1ccccc1)c1ccccc1
inactive: [2] 98 % of control | [4] 93 % of control | [6] 88 % of control

N#Cc1cnoc1N
inactive: [1] 112 % of control | [3] 114 % of control | [5] 109 % of control

CC12CCC(C/C1=N\O)C2(C)C (stereo not given)
inactive: [12] 106 % of control | [8] 97 % of control | [13] 102 % of control

O=C1C=C(O)c2ccccc2C1=O.[Ag]
inactive: endpoint: mean survival time, dose: 12.5 mg/kg/injection, schedule: Q01DX001 (ip), vehicle: saline with Tween-80 97 % of control | endpoint: mean survival time, dose: 25.0 mg/kg/injection, schedule: Q01DX001 (ip), vehicle: saline with Tween-80 93 % of control

COC(CO)(OC)c1ccccc1
inactive: [2] 102 % of control | [4] 106 % of control | [6] 93 % of control

[Cl][Pt+2][Cl].[NH-]c1ccccc1C(F)(F)F.[NH-]c1ccccc1C(F)(F)F
inactive: endpoint: mean survival time, dose: 12.5 mg/kg/injection, schedule: Q04DX003 (ip), vehicle: distilled water + Tween-80 97 % of control | endpoint: mean survival time, dose: 25.0 mg/kg/injection, schedule: Q04DX003 (ip), vehicle: distilled water + Tween-80 97 % of control | endpoint: mean survival time, dose: 50.0 mg/kg/injection, schedule: Q04DX003 (ip), vehicle: distilled water + Tween-80 106 % of control | endpoint: mean survival time, dose: 100.0 mg/kg/injection, schedule: Q04DX003 (ip), vehicle: distilled water + Tween-80 114 % of control

O=C(O)/C=C(/Cl)c1ccccc1
inactive: [1] 101 % of control | [3] 91 % of control | [5] 89 % of control

c1ccc(NC2=NCCO2)nc1
inactive: [9] 101 % of control | [10] 100 % of control

Nc1ccc2c(c1)C(=O)OC2(C(F)(F)F)C(F)(F)F
inactive: [9] 104 % of control | [10] 101 % of control | [11] 102 % of control

O=C1CSC(=S)N1C1OC(CO)C(O)C1O (stereo not given)
inactive: endpoint: mean survival time, dose: 12.5 mg/kg/injection, schedule: Q01DX005 (ip), vehicle: distilled water + Tween-80 111 % of control | endpoint: mean survival time, dose: 25.0 mg/kg/injection, schedule: Q01DX005 (ip), vehicle: distilled water + Tween-80 102 % of control | endpoint: mean survival time, dose: 50.0 mg/kg/injection, schedule: Q01DX005 (ip), vehicle: distilled water + Tween-80 102 % of control | endpoint: mean survival time, dose: 100.0 mg/kg/injection, schedule: Q01DX005 (ip), vehicle: distilled water + Tween-80 101 % of control | endpoint: mean survival time, dose: 200.0 mg/kg/injection, schedule: Q01DX005 (ip), vehicle: distilled water + Tween-80 92 % of control

CC(C)(CO)C(O)C(=O)NCCS(=O)c1ccc(F)cc1 (stereo not given)
inactive: endpoint: mean survival time, dose: 100.0 mg/kg/injection, schedule: Q04DX003 (ip), vehicle: other 100 % of control | endpoint: mean survival time, dose: 200.0 mg/kg/injection, schedule: Q04DX003 (ip), vehicle: other 96 % of control | endpoint: mean survival time, dose: 400.0 mg/kg/injection, schedule: Q04DX003 (ip), vehicle: other 100 % of control

O=C(c1ccccc1)C(Br)C(C(=O)O)c1ccccc1 (stereo not given)
inactive: [2] 101 % of control | [4] 95 % of control | [6] 95 % of control

O=S(=O)(F)c1ccc(Cl)c(Cl)c1S
inactive: [14] 98 % of control | [15] 98 % of control

O=c1cc(O)cn[nH]1
inactive: endpoint: mean survival time, dose: 25.0 mg/kg/injection, schedule: Q01DX009 (ip), vehicle: other 97 % of control | endpoint: mean survival time, dose: 50.0 mg/kg/injection, schedule: Q01DX009 (ip), vehicle: other 97 % of control | endpoint: mean survival time, dose: 100.0 mg/kg/injection, schedule: Q01DX009 (ip), vehicle: other 104 % of control | endpoint: mean survival time, dose: 200.0 mg/kg/injection, schedule: Q01DX009 (ip), vehicle: other 102 % of control | endpoint: mean survival time, dose: 400.0 mg/kg/injection, schedule: Q01DX009 (ip), vehicle: other 102 % of control

O=C(COc1ccc(F)cc1F)OC(=O)Cc1ccc(Br)cc1
inactive: [14] 101 % of control | [15] 105 % of control | [16] 86 % of control

CC(C)CCNCCO
inactive: [17] 102 % of control | [18] 102 % of control

COc1ccccc1N1C(=O)C=CC1=O
inactive: endpoint: mean survival time, dose: 5.0 mg/kg/injection, schedule: Q04DX003 (ip), vehicle: saline with Tween-80 98 % of control | endpoint: mean survival time, dose: 10.0 mg/kg/injection, schedule: Q04DX003 (ip), vehicle: saline with Tween-80 100 % of control | endpoint: mean survival time, dose: 20.0 mg/kg/injection, schedule: Q04DX003 (ip), vehicle: saline with Tween-80 95 % of control

CNC(=S)N1CCSN1NC
inactive: [14] 91 % of control | [15] 95 % of control | [16] 86 % of control

Cc1ccccc1CN1C2=NCCN2C(=O)C2=C1CCN(S(=O)(=O)c1ccc(Cl)c(S(N)(=O)=O)c1)C2
inactive: endpoint: median survival time, dose: 25.0 mg/kg/injection, schedule: Q01DX009 (ip), vehicle: saline 95 % of control | endpoint: median survival time, dose: 50.0 mg/kg/injection, schedule: Q01DX009 (ip), vehicle: saline 100 % of control | endpoint: median survival time, dose: 100.0 mg/kg/injection, schedule: Q01DX009 (ip), vehicle: saline 93 % of control | endpoint: median survival time, dose: 400.0 mg/kg/injection, schedule: Q01DX009 (ip), vehicle: saline 88 % of control

C=C(CC)C1(C)C(=O)NC(=O)NC1=O
inactive: [17] 95 % of control | [18] 97 % of control | endpoint: mean survival time, dose: 300.0 mg/kg/injection, schedule: Q01DX001 (ip), vehicle: saline 101 % of control

CC(C)[CH2][Sn]([CH2]C(C)C)([CH2]C(C)C)[O]C(=O)C1(C)CCCC2(C)C3CCC(C(C)C)=CC3=CCC12 (stereo not given)
inactive: endpoint: mean survival time, dose: 3.12 mg/kg/injection, schedule: Q01DX009 (ip), vehicle: saline with Tween-80 97 % of control | [7] 90 % of control | [12] 93 % of control

S=C=NCCCCCCN=C=S
inactive: endpoint: mean survival time, dose: 6.25 mg/kg/injection, schedule: Q04DX002 (ip), vehicle: saline 104 % of control | endpoint: mean survival time, dose: 12.5 mg/kg/injection, schedule: Q04DX002 (ip), vehicle: saline 98 % of control | endpoint: mean survival time, dose: 25.0 mg/kg/injection, schedule: Q04DX002 (ip), vehicle: saline 90 % of control and 102 % of control | endpoint: mean survival time, dose: 50.0 mg/kg/injection, schedule: Q04DX002 (ip), vehicle: saline 98 % of control

c1csc(CCc2nc3ccccc3o2)c1
inactive: [9] 103 % of control | [1] 93 % of control | [10] 98 % of control | [3] 97 % of control | [11] 112 % of control | [5] 93 % of control

CC1(C)C/C(=C\c2ccccc2[N+](=O)[O-])C(=O)c2ccccc21
inactive: endpoint: mean survival time, dose: 100.0 mg/kg/injection, schedule: Q04DX003 (ip), vehicle: acetone 92 % of control | endpoint: mean survival time, dose: 200.0 mg/kg/injection, schedule: Q04DX003 (ip), vehicle: acetone 90 % of control | endpoint: mean survival time, dose: 400.0 mg/kg/injection, schedule: Q04DX003 (ip), vehicle: acetone 93 % of control

O=C(NCCC1CC=CCC1)c1ccccc1 (stereo not given)
inactive: [1] 97 % of control | [3] 95 % of control | [5] 103 % of control
